Results reported in patent US20240400575A1, “POLYCYCLIC COMPOUNDS AS SOLUBLE EPOXIDE HYDROLASE INHIBITORS” (Universitat De Barcelona, priority 2018, published 2024).

These compounds were tested against T1, recombinant human sEH (hsEH) (Homo sapiens, UniProt P34913) (assay: In vitro determination of sEH inhibition activity (fluorescent assay, PHOME substrate)). Details: fluorescence, Bis/Tris HCl pH 7.0 with 0.1 mg/mL BSA.
T1 construct: purchased Cayman Chemical 10011669
T1 sequence (P34913 1-555): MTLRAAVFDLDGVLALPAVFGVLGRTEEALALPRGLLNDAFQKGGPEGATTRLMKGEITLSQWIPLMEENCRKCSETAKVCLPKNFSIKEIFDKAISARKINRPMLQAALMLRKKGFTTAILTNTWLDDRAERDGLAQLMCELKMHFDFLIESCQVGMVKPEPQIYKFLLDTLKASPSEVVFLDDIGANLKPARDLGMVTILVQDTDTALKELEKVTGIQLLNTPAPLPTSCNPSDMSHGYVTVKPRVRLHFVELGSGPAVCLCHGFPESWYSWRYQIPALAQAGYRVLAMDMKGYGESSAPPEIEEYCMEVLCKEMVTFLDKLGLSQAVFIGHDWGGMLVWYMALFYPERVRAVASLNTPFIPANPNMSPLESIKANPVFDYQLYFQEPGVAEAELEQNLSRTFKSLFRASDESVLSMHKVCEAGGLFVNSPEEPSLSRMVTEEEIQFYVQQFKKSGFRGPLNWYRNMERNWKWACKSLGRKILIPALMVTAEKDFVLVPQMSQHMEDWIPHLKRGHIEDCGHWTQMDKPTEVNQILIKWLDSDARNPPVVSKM
Type: biochemical
Protocol: Add 5 μL of DMSO to background and positive control wells, and then add 5 μL of inhibitor solution in inhibitor wells. Add 5 μL of the solution of hsEH to the positive control and inhibitor wells and stir the mixture. Prepare a 1/21 dilution of the solution of PHOME with assay buffer according to final volume required, and then add 105 μL of each well. Shake carefully the plate for 10 seconds and incubate for 5 minutes at room temperature. […] The intensity of fluorescence was used to analyze and calculate the IC50 values. Results were obtained by regression analysis from at least three data points in a linear region of the curve. IC50 values are average of minimum three independent replicates.

Structure (SMILES) | IC50 [nM]
COc1ccc2c(c1)C1CC3(C)CC2CC(NC(=O)NC2CCN(C(C)=O)CC2)(C1)C3 (centres unmarked) [Example 69, 1-(1-acetylpiperidin-4-yl)-3-(2-methoxy-9-methyl-5,6,8,9,10,11-hexa-hydro-7H-5.9:7,11-dimethanobenzo[9]annulen-7-yl)urea] | < 10
CC12CC3CC(NC(=S)Nc4ccc(C(F)(F)F)cc4)(CC(C1)c1ccccc13)C2 [Example 35, 1-(9-methyl-5,6,8,9,10,11-hexahydro-7H-5,9:7,11-dimethanobenzo[9]annulen-7-yl)-3-(4-(trifluoromethyl)phenyl)thiourea] | 100 to 1000
COC12CC3CC(NC(=O)Nc4nc5ccccc5s4)(CC(C1)c1ccccc13)C2 [Example 73, 1-(benzo[d]thiazol-2-yl)-3-(9-methoxy-5,6,8,9,10,11-hexahydro-7H-5,9:7,11-dimethanobenzo[9]annulen-7-yl)urea] | 100 to 1000
CC(=O)N1CCC(NC(=O)NC23CC4CC(C)(CC(C2)c2ccccc24)O3)CC1 [Example 36, 1-(1-acetylpiperidin-4-yl)-3-(5-methyl-1,5,6,7-tetrahydro-1,5:3,7-dimethanobenzo[e]oxonin-3(2H)-yl)urea] | 100 to 1000
CC(=O)c1ccc(N2CCC(NC(=O)NC34CC5CC(C)(CC(C3)c3ccccc35)C4)CC2)cc1 [Example 64, 1-(1-(4-acetylphenyl)piperidin-4-yl)-3-(9-methyl-5,6,8,9,10,11-hexahydro-7H-5,9:7,11-dimethanobenzo[9]annulen-7-yl)urea] | < 10
CC(=O)N1CCC(NC(=O)NC23CC4CC(C)(CC(C2)c2cc([N+](=O)[O-])ccc24)C3)CC1 (centres unmarked) [Example 52, 1-(1-acetylpiperidin-4-yl)-3-(9-methyl-2-nitro-5,6,8,9,10,11-hexahydro-7H-5,9:7,11-dimethanobenzo[9]annulen-7-yl)urea] | < 10
CC12CC3CC(NC(=O)NC4CCC(Oc5ccc(C(=O)O)cc5)CC4)(CC(C1)c1ccccc13)O2 (centres unmarked) [Example 43, 4-(((1r,4r)-4-(3-(5-methyl-1,5,6,7-tetrahydro-1,5:3,7-dimethanobenzo [e]oxonin-3(2H)-yl)ureido)cyclohexyl)oxy)benzoic acid] | 10 to 50
CC(=O)N1CCC(NC(=O)NC23CC4CC2CC(C3)c2ccccc24)CC1 [Example 72, 1-(1-acetylpiperidin-4-yl)-3-(5,8,9,10-tetrahydro-5,8:7,10-dimethano-benzo[8]annulen-7(6H)-yl)urea] | 10 to 50
CC12CC3CC(NC(=O)NC4CC5CCC(C4)N5Cc4ccccc4)(CC(C1)c1ccccc13)C2 [Example 67, 1-((1R,3s,5S)-8-benzyl-8-azabicyclo[3.2.1]octan-3-yl)-3-(9-methyl-5,6,8.9.10,11-hexahydro-7H-5.9:7,11-dimethanobenzo[9]annulen-7-yl)urea] | < 10
CC(=O)N1CCC(NC(=O)NC23CC4CC(C)(CC(C2)c2cc(N)ccc24)C3)CC1 (centres unmarked) [Example 53, 1-(1-acetylpiperidin-4-yl)-3-(2-amino-9-methyl-5,6,8,9,10,11-hexa-hydro-7H-5,9:7,11-dimethanobenzo[9]annulen-7-yl)urea] | 10 to 50
CC12CC3CC(NC(=O)NC4CCN(C(=O)c5ccccc5F)CC4)(CC(C1)c1ccccc13)C2 [Example 66, 1-(1-(2-fluorobenzoyl)piperidin-4-yl)-3-(9-methyl-5,6,8,9,10,11-hexa-hydro-7H-5,9:7,11-dimethanobenzo[9]annulen-7-yl)urea] | < 10
CC12CC3CC(NC(=O)NC4CCC(Oc5ccc(C(=O)O)cc5)CC4)(CC(C1)c1ccccc13)C2 (centres unmarked) [Example 44, 4-(((1r,4r)-4-(3-(9-methyl-5,6,8,9,10,11-hexahydro-7H-5,9:7,11-dimethanobenzo[9]annulen-7-yl)ureido)cyclohexyl)oxy)benzoic acid] | < 10
CC(=O)N1CCC(NC(=O)NC23CC4CC(C)(CC(C2)c2cc(F)ccc24)C3)CC1 (centres unmarked) [Example 68, 1-(1-acetylpiperidin-4-yl)-3-(2-fluoro-9-methyl-5,6,8,9,10,11-hexahydro-7H-5,9:7,11-dimethanobenzo[9]annulen-7-yl)urea] | < 10
CC(=O)N1CCC(NC(=O)NC23CC4CC(C)(CC(C2)c2c(F)cccc24)C3)CC1 (centres unmarked) [Example 70, 1-(1-acetylpiperidin-4-yl)-3-(1-fluoro-9-methyl-5,6,8,9,10,11-hexahydro-7H-5,9:7,11-dimethanobenzo[9]annulen-7-yl)urea] | < 10
CC(=O)c1ccc2c(c1)C1CC3(C)CC2CC(NC(=O)NC2CCN(C(C)=O)CC2)(C1)C3 (centres unmarked) [Example 51, 1-(2-acetyl-9-methyl-5,6,8,9,10,11-hexahydro-7H-5,9:7,11-dimethano-benzo[9]annulen-7-yl)-3-(1-acetylpiperidin-4-yl)urea] | < 10
CC12CC3CC(NC(=O)Nc4ccc(F)c(F)c4F)(CC(C1)c1ccccc13)O2 [Example 59, 1-(5-methyl-1,5,6,7-tetrahydro-1,5:3,7-dimethanobenzo[e]oxonin-3(2H)-yl)-3-(2,3,4-trifluorophenyl)urea] | 10 to 50
CC(C)S(=O)(=O)N1CCC(CC(=O)NC23CC4CC(C)(CC(C2)c2ccccc24)C3)CC1 [Example 56, 2-[1-(isopropylsulfonyl)piperidin-4-yl]-N-(9-methyl-5,6,8,9,10,11-hexahydro-7H-5,9:7,11-dimethanobenzo[9]annulen-7-yl)acetamide] | 10 to 50
COc1cc2c(cc1OC)C1CC3(C)CC2CC(NC(=O)NC2CCN(C(C)=O)CC2)(C1)C3 [Example 71, 1-(1-acetylpiperidin-4-yl)-3-(2,3-dimethoxy-9-methyl-5,6,8,9,10,11-hexahydro-7H-5.9:7,11-dimethanobenzo[9]annulen-7-yl)urea] | < 10
CC12CC3CC(NC(=O)CC4CCN(Cc5ccccc5)CC4)(CC(C1)c1ccccc13)C2 [Example 60, 2-(1-benzylpiperidin-4-yl)-N-(9-methyl-5,6,8,9,10,11-hexahydro-7H-5.9:7,11-dimethanobenzo[9]annulen-7-yl)acetamide] | 100 to 1000
CC12CC3CC(NC(=O)NC4CCN(Cc5ccccc5)CC4)(CC(C1)c1ccccc13)C2 [Example 48, 1-(1-benzylpiperidin-4-yl)-3-(9-methyl-5,6,8,9,10,11-hexahydro-7H-5,9:7,11-dimethanobenzo[9]annulen-7-yl)urea] | < 10
CC(=O)N1CCC(NC(=O)NC23CC4CC(F)(CC(C2)c2c(F)cccc24)C3)CC1 (centres unmarked) [Example 74, 1-(1-acetylpiperidin-4-yl)-3-(1,9-difluoro-5,6,8,9,10,11-hexahydro-7H-5,9:7,11-dimethanobenzo[9]annulen-7-yl)urea] | < 10
CC12CC3CC(NC(=O)Nc4ccc(F)c(F)c4F)(CC(C1)c1ccccc13)C2 [Example 58, 1-(9-methyl-6,7,8,9,10,11-hexahydro-5H-5,9:7,11-dimethanobenzo[9]annulen-7-yl)-3-(2,3,4-trifluorophenyl)urea] | < 10
CC(=O)N1CCC(CC(=O)NC23CC4CC(C)(CC(C2)c2ccccc24)C3)CC1 [Example 57, 2-(1-acetylpiperidin-4-yl)-N-(9-methyl-5,6,8,9,10,11-hexahydro-7H-5,9:7,11-dimethanobenzo[9]annulen-7-yl)acetamide] | 100 to 1000
